{"source": "patent US20160272626A1", "about": "“PYRAZINE DERIVATIVES” (HOFFMANN-LA ROCHE INC., priority 2012, published 2016)", "key": {"mouse TAAR1": {"target": "T1, mouse TAAR1 (Mus musculus, UniProt Q923Y8)", "T1 construct": "expressed in transfected cells; membrane preparation", "T1 sequence (Q923Y8 whole entry)": "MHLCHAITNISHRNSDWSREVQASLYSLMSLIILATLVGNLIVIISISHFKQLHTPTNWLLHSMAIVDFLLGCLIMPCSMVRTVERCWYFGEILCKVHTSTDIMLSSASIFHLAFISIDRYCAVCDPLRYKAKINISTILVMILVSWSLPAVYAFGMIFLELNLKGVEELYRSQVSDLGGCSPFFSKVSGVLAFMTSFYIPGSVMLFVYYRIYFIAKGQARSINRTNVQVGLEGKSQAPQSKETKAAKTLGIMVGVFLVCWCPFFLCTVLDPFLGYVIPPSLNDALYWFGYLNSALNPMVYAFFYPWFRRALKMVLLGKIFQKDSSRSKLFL", "test": "Radioligand binding assay on mouse TAAR1", "details": "mouse TAAR1, HEK-293 membranes, first value of cell mouse/rat", "experimental": "(§1) For the construction of expression plasmids the coding sequences of human, rat and mouse TAAR 1 were amplified from genomic DNA essentially as described by Lindemann et al.. The Expand High Fidelity PCR System (Roche Diagnostics) was used with 1.5 mM Mg^2+ and purified PCR products were cloned into pCR2.1-TOPO cloning vector (Invitrogen) following the instructions of the manufacturer. PCR products were subcloned into the pIRESneo2 vector (BD Clontech, Palo Alto, Calif.), and expression vectors were sequence verified before introduction in cell lines.\n(§2) HEK293 cells (ATCC # CRL-1573) were cultured essentially as described by Lindemann et al. (2005). For the generation of stably transfected cell lines HEK293 cells were transfected with the pIRESneo2 expression plasmids containing the TAAR coding sequences (described above) with Lipofectamine 2000 (Invitrogen) according to the instructions of the manufacturer, and 24 hrs post transfection the culture medium was supplemented with 1 mg/ml G418 (Sigma, Buchs, Switzerland). After a culture period of about 10 d clones were isolated, expanded and tested for responsiveness to trace amines (all compounds purchased from Sigma) with the cAMP Biotrak Enzyme immunoassay (EIA) System (Amersham) following the non-acetylation EIA procedure provided by the manufacturer.\nRadioligand Binding Assay on Mouse TAAR1\n(§3) Membrane Preparation and Radioligand Binding.\nHEK-293 cells stably expressing mouse TAAR1 were maintained at 37° C. and 5% CO2 in DMEM high glucose medium, containing fetal calf serum (10%, heat inactivated for 30 min at 56° C.), penicillin/streptomycin (1%), and 375 μg/ml geneticin (Gibco). Cells were released from culture flasks using trypsin/EDTA, harvested, washed twice with ice-cold PBS (without Ca^2+ and Mg^2+), pelleted at 1,000 rpm for 5 min at 4° C., frozen and stored at −80° C. Frozen pellets were suspended in 20 ml HEPES-NaOH (20 mM, pH 7.4) containing 10 mM EDTA and homogenized with a Polytron (PT 6000, Kinematica) at 14,000 rpm for 20 s. The homogenate was centrifuged at 48,000×g for 30 min at 4° C. Subsequently, the supernatant was removed and discarded, and the pellet resuspended in 20 ml HEPES-NaOH (20 mM, pH 7.4) containing 0.1 mM EDTA using the Polytron (20 s at 14,000 rpm). This procedure was repeated and the final pellet resuspended in HEPES-NaOH containing 0.1 mM EDTA and homogenized using the Polytron. Typically, aliquots of 2 ml membrane portions were stored at −80° C. With each new membrane batch the dissociation constant (Kd) was determined via a saturation curve. The TAAR1 radioligand ^3[H]—(S)-4-[(ethyl-phenyl-amino)-methyl]-4,5-dihydro-oxazol-2-ylamine (described in WO 2008/098857) was used at a concentration equal to the calculated Kd value, that was usually around 0.7 nM, resulting in the binding of approximately 0.5% of the radioligand and a specific binding representing approximately 70% of the total binding. Nonspecific binding was defined as the amount of ^3[H]—(S)-4-[(ethyl-phenyl-amino)-methyl]-4,5-dihydro-oxazol-2-ylamine bound in the presence of 10 μM unlabeled ligand. All compounds were tested at a broad range of concentrations (10 pM to 10 μM) in duplicates. The test compounds (20 μl/well) were transferred into a 96 deep well plate (TreffLab), and 180 μl of HEPES-NaOH (20 mM, pH 7.4) containing MgCl2 (10 mM) and CaCl2 (2 mM) (binding buffer), 300 μl of the radioligand ^3[H]—(S)-4-[(ethyl-phenyl-amino)-methyl]-4,5-dihydro-oxazol-2-ylamine at a concentration of 3.3×Kd in nM and 500 μl of the membranes (resuspended at 60 μg protein per ml) added. The 96 deep well plates were incubated for 1 hr at 4° C. Incubations were terminated by rapid filtration through Unifilter-96 plates (Packard Instrument Company) and glass filters GF/C (Perkin Elmer) presoaked for 1 hr in polyethylenimine (0.3%) and washed 3 times with 1 ml of cold binding buffer. […]"}, "rat TAAR1": {"target": "T2, rat TAAR1 (Rattus norvegicus, UniProt Q923Y9)", "T2 construct": "expressed in transfected cells; membrane preparation", "T2 sequence (Q923Y9 whole entry)": "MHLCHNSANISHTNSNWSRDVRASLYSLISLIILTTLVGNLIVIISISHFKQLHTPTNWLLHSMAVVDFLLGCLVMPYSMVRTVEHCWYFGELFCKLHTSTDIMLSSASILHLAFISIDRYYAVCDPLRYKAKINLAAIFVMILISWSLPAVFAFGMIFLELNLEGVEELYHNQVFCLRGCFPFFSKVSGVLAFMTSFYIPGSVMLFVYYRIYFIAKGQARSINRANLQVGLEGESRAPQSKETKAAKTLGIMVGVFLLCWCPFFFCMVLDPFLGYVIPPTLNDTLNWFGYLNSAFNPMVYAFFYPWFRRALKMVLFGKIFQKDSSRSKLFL", "test": "Radioligand binding assay on rat TAAR1", "details": "rat TAAR1, HEK-293 membranes, second value of cell mouse/rat", "experimental": "as §1, §2\nRadioligand Binding Assay on Rat TAAR1\nas §3\nHEK-293 cells stably expressing rat TAAR1 were maintained at 37° C. and 5% CO2 in DMEM high glucose medium, containing fetal calf serum (10%, heat inactivated for 30 min at 56° C.), penicillin/streptomycin (1%), and 375 μg/ml geneticin (Gibco). Cells were released from culture flasks using trypsin/EDTA, harvested, washed twice with ice-cold PBS (without Ca^2+ and Mg^2+), pelleted at 1,000 rpm for 5 min at 4° C., frozen and stored at −80° C. Frozen pellets were suspended in 20 ml HEPES-NaOH (20 mM, pH 7.4) containing 10 mM EDTA and homogenized with a Polytron (PT 6000, Kinematica) at 14,000 rpm for 20 s. The homogenate was centrifuged at 48,000×g for 30 min at 4° C. Subsequently, the supernatant was removed and discarded, and the pellet resuspended in 20 ml HEPES-NaOH (20 mM, pH 7.4) containing 0.1 mM EDTA using the Polytron (20 s at 14,000 rpm). This procedure was repeated and the final pellet resuspended in HEPES-NaOH containing 0.1 mM EDTA and homogenized using the Polytron. Typically, aliquots of 2 ml membrane portions were stored at −80° C. With each new membrane batch the dissociation constant (Kd) was determined via a saturation curve. […] Nonspecific binding was defined as the amount of ^3[H]—(S)-4-[(ethyl-phenyl-amino)-methyl]-4,5-dihydro-oxazol-2-ylamine bound in the presence of 10 μM unlabeled ligand. All compounds were tested at a broad range of concentrations (10 pM to 10 μM) in duplicates. The test compounds (20 μl/well) were transferred into a 96 deep well plate (TreffLab), and 180 μl of HEPES-NaOH (20 mM, pH 7.4) containing MgCl2 (10 mM) and CaCl2 (2 mM) (binding buffer), 300 μl of the radioligand ^3[H]—(S)-4-[(ethyl-phenyl-amino)-methyl]-4,5-dihydro-oxazol-2-ylamine at a concentration of 3.3×Kd in nM and 500 μl of the membranes (resuspended at 50 μg protein per ml) added. The 96 deep well plates were incubated for 1 hr at 4° C. Incubations were terminated by rapid filtration through Unifilter-96 plates (Packard Instrument Company) and glass filters GF/C (Perkin Elmer) presoaked for 1 hr in polyethylenimine (0.3%) and washed 3 times with 1 ml of cold binding buffer. After addition of 45 μl of Microscint 40 (PerkinElmer) the Unifilter-96 plate was sealed and after 1 hr the […] counted using a TopCount Microplate Scintillation Counter (Packard Instrument Company)."}}, "note": "Structures can show the parent of a compound that is named as a salt."}
{"compound": "O=C(Nc1ccc([C@@H]2CNCCO2)c(F)c1)c1cnc(C(F)(F)F)cn1", "note": "[Example 1, (R)—N-(3-Fluoro-4-(morpholin-2-yl)phenyl)-5-(trifluoromethyl)pyrazine-2-carboxamide hydrochloride]", "values": [{"measurement": "Ki", "setting": "mouse TAAR1", "value": 0.0115, "unit": "µM"}, {"measurement": "Ki", "setting": "rat TAAR1", "value": 0.009, "unit": "µM"}]}
{"compound": "CC(C)c1cncc(C(=O)Nc2ccc([C@H]3CNCCO3)c(F)c2)n1", "note": "[Example 21, 6-Isopropyl-pyrazine-2-carboxylic acid ((S)-3-fluoro-4-morpholin-2-yl-phenyl)-amide]", "values": [{"measurement": "Ki", "setting": "mouse TAAR1", "value": 0.0181, "unit": "µM"}, {"measurement": "Ki", "setting": "rat TAAR1", "value": 0.0849, "unit": "µM"}]}
{"compound": "O=C(Nc1ccc([C@@H]2CNCCO2)c(F)c1)c1cncc(OCC(F)(F)F)n1", "note": "[Example 30, (R)—N-(3-Fluoro-4-(morpholin-2-yl)phenyl)-6-(2,2,2-trifluoroethoxy)pyrazine-2-carboxamide]", "values": [{"measurement": "Ki", "setting": "mouse TAAR1", "value": 0.0292, "unit": "µM"}, {"measurement": "Ki", "setting": "rat TAAR1", "value": 0.0035, "unit": "µM"}]}
{"compound": "O=C(Nc1ccc([C@@H]2CNCCO2)cc1F)c1cnc(C2CC2)cn1", "note": "[Example 20, (R)-5-Cyclopropyl-N-(2-fluoro-4-(morpholin-2-yl)phenyl)pyrazine-2-carboxamide]", "values": [{"measurement": "Ki", "setting": "mouse TAAR1", "value": 0.0099, "unit": "µM"}, {"measurement": "Ki", "setting": "rat TAAR1", "value": 0.0708, "unit": "µM"}]}
{"compound": "COc1cncc(C(=O)Nc2ccc([C@H]3CNCCO3)c(F)c2)n1", "note": "[Example 9, (S)—N-(3-Fluoro-4-(morpholin-2-yl)phenyl)-6-methoxypyrazine-2-carboxamide hydrochloride]", "values": [{"measurement": "Ki", "setting": "mouse TAAR1", "value": 0.0314, "unit": "µM"}, {"measurement": "Ki", "setting": "rat TAAR1", "value": 0.247, "unit": "µM"}]}
{"compound": "O=C(Nc1ccc([C@H]2CNCCO2)cc1F)c1cnc(C2CC2)cn1", "note": "[Example 19, (S)-5-Cyclopropyl-N-(2-fluoro-4-(morpholin-2-yl)phenyl)pyrazine-2-carboxamide]", "values": [{"measurement": "Ki", "setting": "mouse TAAR1", "value": 0.0061, "unit": "µM"}, {"measurement": "Ki", "setting": "rat TAAR1", "value": 0.235, "unit": "µM"}]}
{"compound": "N#Cc1cc(NC(=O)c2cnc(C(F)(F)F)cn2)ccc1[C@@H]1CNCCO1", "note": "[Example 2, (R)—N-(3-Cyano-4-(morpholin-2-yl)phenyl)-5-(trifluoromethyl)pyrazine-2-carboxamide hydrochloride]", "values": [{"measurement": "Ki", "setting": "mouse TAAR1", "value": 0.0184, "unit": "µM"}, {"measurement": "Ki", "setting": "rat TAAR1", "value": 0.0186, "unit": "µM"}]}
{"compound": "N#Cc1cc(NC(=O)c2cncc(C(F)(F)F)n2)ccc1[C@@H]1CNCCO1", "note": "[Example 4, (R)—N-(3-Cyano-4-(morpholin-2-yl)phenyl)-6-(trifluoromethyl)pyrazine-2-carboxamide hydrochloride]", "values": [{"measurement": "Ki", "setting": "mouse TAAR1", "value": 0.0833, "unit": "µM"}, {"measurement": "Ki", "setting": "rat TAAR1", "value": 0.0344, "unit": "µM"}]}
{"compound": "COc1cnc(C(=O)Nc2ccc([C@H]3CNCCO3)c(F)c2)cn1", "note": "[Example 10, (S)—N-(3-Fluoro-4-(morpholin-2-yl)phenyl)-5-methoxypyrazine-2-carboxamide hydrochloride]", "values": [{"measurement": "Ki", "setting": "mouse TAAR1", "value": 0.0136, "unit": "µM"}, {"measurement": "Ki", "setting": "rat TAAR1", "value": 0.54, "unit": "µM"}]}
{"compound": "O=C(Nc1ccc([C@H]2CNCCO2)c(F)c1)c1cnc(OCC2CCC2)cn1", "note": "[Example 11, (S)-5-(Cyclobutylmethoxy)-N-(3-fluoro-4-(morpholin-2-yl)phenyl)pyrazine-2-carboxamide hydrochloride]", "values": [{"measurement": "Ki", "setting": "mouse TAAR1", "value": 0.0046, "unit": "µM"}, {"measurement": "Ki", "setting": "rat TAAR1", "value": 0.0119, "unit": "µM"}]}
{"compound": "O=C(Nc1ccc([C@@H]2CNCCO2)c(F)c1)c1cncc(C(F)(F)F)n1", "note": "[Example 6, (R)—N-(3-Fluoro-4-(morpholin-2-yl)phenyl)-6-(trifluoromethyl)pyrazine-2-carboxamide hydrochloride]", "values": [{"measurement": "Ki", "setting": "mouse TAAR1", "value": 0.0328, "unit": "µM"}, {"measurement": "Ki", "setting": "rat TAAR1", "value": 0.0197, "unit": "µM"}]}
{"compound": "O=C(Nc1ccc([C@H]2CNCCO2)c(F)c1)c1cnc(OCC(F)(F)F)cn1", "note": "[Example 24, (S)—N-(3-Fluoro-4-(morpholin-2-yl)phenyl)-5-(2,2,2-trifluoroethoxy)pyrazine-2-carboxamide]", "values": [{"measurement": "Ki", "setting": "mouse TAAR1", "value": 0.0042, "unit": "µM"}, {"measurement": "Ki", "setting": "rat TAAR1", "value": 0.0202, "unit": "µM"}]}
